What was measured:
EMT6 [1] = assay: Tested for 50% inhibition against EMT-6 murine mammary carcinoma cell under hypoxia condition; format: functional, cell-based; details: Mus musculus
EMT6 [2] = assay: Tested for 50% inhibition against EMT-6 murine mammary carcinoma cell under normal oxygenated condition; format: functional, cell-based; details: Mus musculus
EMT6 [3] = assay: Tested for 90% inhibition against EMT-6 murine mammary carcinoma cell under hypoxia condition; format: functional; details: Mus musculus
EMT6 [4] = assay: Tested for 90% inhibition against EMT-6 murine mammary carcinoma cell under normal oxygenated condition; format: functional; details: Mus musculus
Mus musculus [5] = assay: Increase in life span of animals bearing L1210 leukemia after ip administration at a dose of 0.50 mg/kg; format: functional; details: route intraperitoneal
Mus musculus [6] = assay: Increase in life span of animals bearing L1210 leukemia after ip administration at a dose of 1.00 mg/kg; format: functional; details: route intraperitoneal
Mus musculus [7] = assay: Increase in life span of animals bearing L1210 leukemia after ip administration at a dose of 1.25 mg/kg; format: functional; details: route intraperitoneal
Mus musculus [8] = assay: Increase in life span of animals bearing L1210 leukemia after ip administration at a dose of 1.50 mg/kg; format: functional; details: route intraperitoneal
Mus musculus [9] = assay: Increase in life span of animals bearing L1210 leukemia after ip administration at a dose of 2.00 mg/kg; format: functional; details: route intraperitoneal
Mus musculus [10] = assay: Increase in life span of animals bearing L1210 leukemia after ip administration at a dose of 2.50 mg/kg; Toxic; format: functional, organism-based; parameters: dose 2.5 mg/kg
Mus musculus [11] = assay: Survival days at a dose of 0.50 mg/kg after ip administration on days 1-5; format: functional; details: dose 0.5 mg/kg; route intraperitoneal
Mus musculus [12] = assay: Survival days at a dose of 1.00 mg/kg after ip administration on days 1-5; format: functional; details: route intraperitoneal
Mus musculus [13] = assay: Survival days at a dose of 1.25 mg/kg after ip administration on days 1-5; format: functional; details: route intraperitoneal
Mus musculus [14] = assay: Survival days at a dose of 1.50 mg/kg after ip administration on days 1-5; format: functional; details: dose 1.5 mg/kg; route intraperitoneal
Mus musculus [15] = assay: Survival days at a dose of 2.00 mg/kg after ip administration on days 1-5; format: functional; details: route intraperitoneal
Mus musculus [16] = assay: Survival days at a dose of 2.50 mg/kg after ip administration on days 1-5; format: functional; details: dose 2.5 mg/kg; route intraperitoneal

SMILES	IC50 (EMT6 [1])	IC50 (EMT6 [2])	IC90 (EMT6 [3])	IC90 (EMT6 [4])	further results
COC1=CC(=O)C(=O)C=C1OC	> 500 µM	500 µM	> 500 µM	> 500 µM	
CCOC(=O)NC1=C(N2CC2)C(=O)C(NC(=O)OCC)=C(N2CC2)C1=O [DIAZIQUONE]	7.5 µM	5 µM			
COC1=CC(=O)C(O)=C/C1=N\CCCl	110 µM	125 µM	190 µM	455 µM	
O=C1C=C(N2CCC2)C(N2CCC2)=CC1=O	400 µM	500 µM	> 500 µM	> 500 µM	
O=C1C=C(N2CC2)C(N2CC2)=CC1=O	0.2 µM	0.4 µM	1 µM	1.1 µM	ILS at 0.5 mg/kg (Mus musculus [5]): 70%; ILS at 1 mg/kg (Mus musculus [6]): 81%; ILS at 1.25 mg/kg (Mus musculus [7]): 84%; ILS at 1.5 mg/kg (Mus musculus [8]): 86%; ILS at 2 mg/kg (Mus musculus [9]): 59%; ILS (Mus musculus [10]): Toxic; Survival days (Mus musculus [11]): 12.6; Survival days (Mus musculus [12]): 13.4; Survival days (Mus musculus [13]): 13.6; Survival days (Mus musculus [14]): 13.8; Survival days (Mus musculus [15]): 11.8; Survival days (Mus musculus [16]): 6
O=C1C=C(N2CCCC2)C(N2CCCC2)=CC1=O	> 500 µM	> 500 µM	> 500 µM	> 500 µM	
CCN(CC)C1=CC(=O)C(=O)C=C1N(CC)CC	400 µM	500 µM	> 500 µM	> 500 µM	

Source: ChEMBL document CHEMBL1126716, “Synthesis and evaluation of the antitumor activity of 4,5-diamino-substituted 1,2-benzoquinones” (J Med Chem, 1993)
